Assay [1] relates to AGS cells. Briefly: Prostaglandin E2 (PGE2) content of AGS cells, enzyme immunoassay. It is filed as cell-based, human.
In a further assay the test system is MRC-5 fibroblasts. Briefly: Proliferation assay of MRC-5 fibroblasts, neutral red uptake. It counts as cell-based, human. The following applies: 4 days. The protocol:
Human lung fibroblasts MRC-5 (ATCC CCL-171) were grown as monolayers in minimum essential Eagle medium (MEM), with Earle’s salts, 2 mM L-glutamine and 2.2 g/L sodium bicarbonate, supplemented with 10% heat-inactivated fetal bovine serum (FBS), 100 IU/mL penicillin and 100 µg/mL streptomycin in a humidified incubator with 5% CO2 in air at 37 °C. For the subsequent experiments, cells were plated at a density of 2.5 × 10^4 cells/mL in 96-well plates.
Untreated cells were used as controls. Cell viability was determined at the end of the incubation by means of the NRU assay. The neutral red concentration was 0.05 mg/mL [4, 33].

Assay [2] relates to human erythrocyte membranes. Kind of assay: Inhibition of lipoperoxidation in erythrocyte membranes. It counts as biochemical. The procedure: The inhibition of lipid peroxidation was determined using human erythrocyte membranes. The products were tested at 500 µg/mL.
Assay [3] deals with AGS cells. Kind of assay: Sodium taurocholate (NaT)-induced damage to AGS cells, viability by neutral red uptake. Conditions: 60 min pre-treatment, then 10 mM NaT 30 min.
Method: The model of AGS cells damaged by sodium taurocholate (NaT) was used to determine the gastroprotective effect of the compounds against the bile-induced injury on the gastric mucosa [10].
The effect of sodium taurocholate (NaT) on cell viability was determined according to Romano et al. [10]. […] Then, 10 mM NaT was added to all wells for 30 min. Un-treated cells were used as controls. Sucralfate (4 mg/mL) was used as reference compound. After incubation, the neutral red uptake (NRU, 0.05 mg/mL) assay was carried out to determine cell viability [4, 33].
For assay [4], the system named is AGS cells. Kind of assay: Cellular reduced glutathione (GSH) content in AGS cells co-incubated with 4% ethanol. The following applies: 12 h; for percent increase of GSH content compared with untreated controls: AGS cells. It is filed as cell-based, human.

Each structure is given as a SMILES string.

On to `COc1ccc2c(c1)c(CC(=O)O)c(C)n2C(=O)c1ccc(Cl)cc1` [Indomethacin, reference compound], for which the “PGE2” value in the assay on AGS cells [1] (100 µM, 1 h, control 24.9 ± 2.1) was found to be 8.5 ± 1.3 pg/mL.
For the molecule `CCCC(=O)Oc1c(C(C)C)cc2c(c1OC(=O)CCC)[C@@]1(C(=O)OC)CCCC(C)(C)C1CC2` (stereo partly shown) [Compound 7], in the assay on MRC-5 fibroblasts (16 µM), the “stimulation of fibroblast proliferation compared to untreated controls” value amounted to 8%. The “Inhibition of the lipoperoxidation, percent effect at 500 µg/mL” value (“Inhibition … percent effect at 500 µg/mL” below) in assay [2] is given as 34%.
Regarding `O.Oc1cc(O)c2c(c1)O[C@H](c1ccc(O)c(O)c1)[C@@H](O)C2` [Catechin, reference compound], the “Inhibition of the lipoperoxidation, IC50” value in assay [2] is recorded as “IC50 75.4 ± 6.0 µg/mL”.
As to `CCC(=O)Oc1c(C(C)C)cc2c(c1O)[C@@]1(C(=O)OC)CCCC(C)(C)C1CC2` (stereo partly shown) [Compound 6], the “Inhibition … percent effect at 500 µg/mL” value in assay [2] came out at 42%.
Consider `COC(=O)[C@]12CCCC(C)(C)C1CCc1cc(C(C)C)c(OC(=O)Cc3ccccc3)c(OC(=O)Cc3ccccc3)c12` (stereo partly shown) [Compound 11], for which, in the assay with AGS cells [3] (62.5 µM), the “percent cytoprotective effect compared to NaT control” value (from here on “percent cytoprotective effect”) is recorded as 12%. The “Inhibition of the lipoperoxidation, IC50” value in assay [2] was “IC50 140.4 ± 12.6 µg/mL”.
For the molecule `COC(=O)[C@]12CCCC(C)(C)C1CCc1cc(C(C)C)c(OC)c(OC)c12` (stereo partly shown) [Compound 2], the “Inhibition … percent effect at 500 µg/mL” value in assay [2] is given as 53%.
Regarding `COC(=O)[C@]12CCCC(C)(C)C1CCc1cc(C(C)C)c(OC(=O)CCl)c(OC(=O)CCl)c12` (stereo partly shown) [Compound 5], the “percent cytoprotective effect” value with AGS cells [3] (1.1 µM) is 17%; in the assay on AGS cells [3] (2.3 µM), 15%; in the assay with AGS cells [3] (4.5 µM), 8%. Also, the “Inhibition of the lipoperoxidation, IC50” value in assay [2] was “IC50 27.6 ± 3.0 µg/mL”.
In the case of `COC(=O)[C@]12CCCC(C)(C)C1CCc1cc(C(C)C)c(OC(=O)Cc3c[nH]c4ccccc34)c(OC(=O)Cc3c[nH]c4ccccc34)c12` (stereo partly shown) [Compound 12], the “Inhibition … percent effect at 500 µg/mL” value in assay [2] was 38%.
As for `COC(=O)[C@]12CCCC(C)(C)C1CCc1cc(C(C)C)c(OC(=O)c3ccccc3)c(OC(=O)c3ccccc3)c12` (stereo partly shown) [Compound 9], in assay [2], the “Inhibition of the lipoperoxidation, IC50” value is listed as “IC50 147.2 ± 16.6 µg/mL”.
As for `CCCOc1c(OC)c(C(C)C)cc2c1[C@@]1(C(=O)OC)CCCC(C)(C)C1CC2` (stereo partly shown) [Compound 16], the “growth stimulation compared to untreated controls” value in the assay with MRC-5 fibroblasts (12 µM) amounted to 8%; in the assay with MRC-5 fibroblasts (24 µM), 18%. Also, in assay [2], the “Inhibition … percent effect at 500 µg/mL” value stood at 46%.
With `COc1c(C(C)C)cc2c(c1O)[C@@]1(C(=O)O)CCCC(C)(C)C1CC2` (stereo partly shown) [Compound 14, 12-O-methylcarnosic acid], the “percent cytoprotective effect” value in the assay on AGS cells [3] (2.8 µM) came out at 12%; with AGS cells [3] (5.6 µM), 5%. Also, the “percent increase of GSH content compared with untreated controls” value (from here on “percent increase of GSH content”) with AGS cells [4] (2.3 µM) was found to be 8%. For the same molecule, the “Inhibition of the lipoperoxidation, IC50” value in assay [2] was “IC50 186.3 ± 16.9 µg/mL”.
In the case of `COC(=O)[C@]12CCCC(C)(C)C1CCc1cc(C(C)C)c(OC)c(O)c12` (stereo partly shown) [Compound 15, 12-O-metylmethylcarnosate], the “percent increase of GSH content” value with AGS cells [4] (4.5 µM) was determined as 11%. Besides, in assay [2], the “Inhibition of the lipoperoxidation, IC50” value was “IC50 165.0 ± 14.9 µg/mL”.
As for `COC(=O)[C@]12CCCC(C)(C)C1CCc1cc(C(C)C)c(OC(=O)C(C)C)c(O)c12` (stereo partly shown) [Compound 8], the “Inhibition of the lipoperoxidation, IC50” value in assay [2] is “IC50 13.6 ± 1.48 µg/mL”.
As to `CC(C)c1cc2c(c(O)c1O)[C@@]1(C(=O)O)CCCC(C)(C)[C@@H]1CC2` [CA, Carnosic acid], the “percent cytoprotective effect” value with AGS cells [3] (6 µM) is listed as 23%; in the assay with AGS cells [3] (12 µM), 22%. In addition, the “percent increase of GSH content” value in the assay on AGS cells [4] (4.5 µM) is given as 19%. Besides, the “Inhibition of the lipoperoxidation, IC50” value in assay [2] was “IC50 2.4 ± 0.18 µg/mL”.
`COC(=O)[C@]12CCCC(C)(C)C1CCc1cc(C(C)C)c(O)c(O)c12` (stereo partly shown) [Compound 1]: the “percent cytoprotective effect” value in the assay with AGS cells [3] (3 µM) turned out to be 13%. The “Inhibition of the lipoperoxidation, IC50” value in assay [2] is reported as “IC50 34.4 ± 4.1 µg/mL”.
As to `CC(=O)N[C@@H](CS)C(=O)O` [NAC, N-acetyl-L-cysteine, reference compound], the “GSH (nmol/10^6 cells)” value in the assay on AGS cells [4] (750 µM, control 3.6 ± 0.2) came out at 4.0 ± 0.2 nmol/10^6 cells. Moreover, the “percent increase of GSH content” value with AGS cells [4] (750 µM) came to 11%.
As to `COC(=O)[C@]12CCCC(C)(C)C1CCc1cc(C(C)C)c(OC(=O)c3cccnc3)c(OC(=O)c3cccnc3)c12` (stereo partly shown) [Compound 10, 11,12-O-dinicotinylmethylcarnosate], the “percent increase of GSH content” value in the assay with AGS cells [4] (1.4 µM) is reported as 14%. Besides, the “Inhibition … percent effect at 500 µg/mL” value in assay [2] was determined as 22%.
For the molecule `CC(=O)Oc1c(C(C)C)cc2c(c1OC(C)=O)[C@@]1(C(=O)O)CCCC(C)(C)C1CC2` (stereo partly shown) [Compound 3], the “percent cytoprotective effect” value with AGS cells [3] (10.5 µM) came out at 13%; in the assay with AGS cells [3] (21 µM), 15%; with AGS cells [3] (42 µM), 13%. In addition, the “Inhibition … percent effect at 500 µg/mL” value in assay [2] is 11%.
In the case of `COC(=O)[C@]12CCCC(C)(C)C1CCc1cc(C(C)C)c(OC(=O)CCCc3c[nH]c4ccccc34)c(O)c12` (stereo partly shown) [Compound 13, 12-O-indolebutyrylmethylcarnosate], the “percent cytoprotective effect” value was found to be 12% in the assay with AGS cells [3] (2.5 µM) and 8% in the assay on AGS cells [3] (5 µM). The “percent increase of GSH content” value with AGS cells [4] (2.0 µM) turned out to be 11%. Also, the “increase of PGE2 content compared to controls” value in the assay on AGS cells [1] (20 µM, AGS cells) is 2.7 fold. In assay [2], the “Inhibition … percent effect at 500 µg/mL” value came to 49%.
For `COC(=O)[C@]12CCCC(C)(C)C1CCc1cc(C(C)C)c(OC)c(OC(C)=O)c12` (stereo partly shown) [Compound 17], the “stimulation of fibroblast proliferation compared to untreated controls” value in the assay on MRC-5 fibroblasts (23 µM) is 7%.
Take `CCCOC(=O)[C@]12CCCC(C)(C)C1CCc1cc(C(C)C)c(OC)c(OCCC)c12` (stereo partly shown) [Compound 18]: the “stimulation of fibroblast proliferation compared to untreated controls” value in the assay on MRC-5 fibroblasts (32 µM) is 16%; in the assay on MRC-5 fibroblasts (63 µM), 22%.

The values above are taken from PMC6270983, “Gastroprotective Mechanisms of Action of Semisynthetic Carnosic Acid Derivatives in Human Cells” (Molecules, 2014).
